Measured values taken from patent US20080125432A1 (Devgen NV, priority 2004, published 2008).

Tests used:
isolated rat left atria = assay: Ex-vivo organ study: functional refractory period in isolated rat left atria; conditions: conc 10^−5 mol/l
Excerpt: The compounds were checked for their effect on the force of contraction, stimulation threshold and for the Functional Refractory Period (FRP) in isolated rat left atria (Rat LA). Rat left atria functionally express the Kv4.3 ion channel, producing the Ito current of the action potential. […] The guinea pig action potential is dominated by hERG like ion channels for the refractory currents. Consequently, activity of hERG channels in vivo should be seen in GP pap muscle preparations.
Left atria were mounted vertically in a two-chambered organ bath containing 100 ml of buffer solution (in mM: NaH2PO4 0.6, MgSO4 0.6, KCl 4.7, NaHCO3 25, glucose 4.5, NaCl-120, CaCl2 2.4). […] The isometric force of the preparations was measured by force transducers, connected to amplifiers, documented by a pen recorder and fed into a computer for evaluation. Force of contraction (FC), threshold stimulus (TS) and the functional refractory period (FRP) were measured at baseline (pre), 20 min after addition of compound, and after washout at the end of the experiment. Threshold stimulus, representing excitability of the tissue, was assessed by varying the voltage applied for electrical stimulation. […] The functional refractory period, representing the time needed for repolarization, was assessed by applying extra stimuli at varying time intervals from the preceding regular pacing stimulus. […]

[1] = tested on: Isus (Kv1.5 + additional channels); assay: Whole-cell patch clamp in human atrial myocytes: Isus; type: cell-based; conditions: n = 3 cells
Experimental: The blocking profile of the compounds of the invention is determined on the following channels of the human atrial myocytes: INa, Ito, Isus and IK1 channel currents.
Human atrial myocytes: Myocytes were prepared from specimens with grossly normal anatomical aspect, excised from hearts of patients with normal P-wave electrocardiogram, undergoing bypass surgery. Human atrial sample were obtained following approval by the ethical committee. […]
Experiments were performed at room temperature (20-25° C.) for INa and at 32-34° C. for Ito, Isus, IK1. Currents were measured using the whole-cell variant of the patch clamp method. […]
After rupture of the cell membrane to enter the whole-cell mode, current amplitude and kinetics were allowed to stabilize for 3-7 min before initiating the experimental procedure. K^+ currents recorded from human atrial myocytes were elicited by a 500 ms pulse to +60 mV from a holding potential of −50 mV for Ito and Isus. Ito was measured as a peak current amplitude whereas Isus as a current present at the end of the 500 ms voltage pulse. In addition, the area under the curve, before and after compound, were measured over the course of the pulse period. […]

SMILES: COc1ccccc1Nc1nc(C)c(C(=O)N[C@H]2CCC[C@@H]2OCc2ccccc2)s1 [Compound 68, 2-(2-methoxy-phenylamino)-4-methyl-thiazole-5-carboxylic acid (1S,2S)-2-(benzyloxycyclopent-1-yl) amide]
- dFRP Rat (isolated rat left atria): 13 ms
- Block at 10 μM in %: Isus (Kv1.5 + additional channels) [1]: 55.2 ± 6.4%
